# Like-named read-outs stand apart in the source and are kept apart here.
# Assays:
# [1] = system: 60 human tumor cell lines; test: NCI in vitro primary screen, panel of 60 human tumor cell lines; format: cell-based; conditions: for GI50: Homo sapiens
# Excerpt: Only two hundred years ago, many diseases ravaged humankind. Many of these diseases now have been controlled or eradicated. In the development of the means to treat or control these diseases, work with the appropriate common experimental animals was of critical importance. With the various types of cancers, and with the HIV virus, such work is presently ongoing. The research for the treatment of various types of cancer is coordinated in the United States by the National Cancer Institute (NCI). NCI, as a government entity, has been charged with assisting anti-cancer research. To establish whether a substance has anti-cancer activity, NCI has established a variety of protocols, one of which involves testing the candidate substance against a cell line panel containing 60 human tumor cell lines. This protocol has been verified and is generally accepted throughout the scientific community. This protocol and the established statistical means of evaluating the results obtained therefrom have been fully described in the literature. See Principles & Practice of Oncology PPO Updates, Volume 3, Number 10, October 1989, by Michael R. Boyd, M.D., Ph.D., for an in depth description of the test protocol. The statistical analysis is explained in "Display and Analysis of Patterns of Differential Activity of Drugs Against Human Tumor Cell Lines: Development of Means Graph and COMPARE Algorithm" Journal of the National Cancer Institute Reports Vol. 81, No. 14, Pg. 1088, Jul. 14, 1989, by K. D. Paull et al. Both of these references are incorporated herein by this reference thereto. The effectiveness and validity of the NCI in vitro protocol continues to be verified.
# ^a All compounds were tested in quadruplicate at five different con-
# entire panel of 60 human tumor cell lines comprising the NCI
# ^c Correlation coefficients from the Compare pattern-recognition
# algorithm were calculated by computer using the TGI-centered
# mean graph profiles of differential cellular sensitivities to 1, and
# 5. The TGI mean graph profile of 1 was used as the benchmark or
# "seed" for all of the comparisons.
# [2] = system: 60 human tumor cell lines; conditions: Background on spongistatins from Spongia sp; cited from earlier work
# P388 = conditions: IP, Q1D × 9, female mice
# [3] = system: P388 lymphocytic leukemia cell line; test: P388 lymphocytic leukemia cell line bioassay; format: cell-based; conditions: Mus musculus; PS (P388); pure compound; read-out: ED50 (the source's name)
SMILES,potency in NCI panel [2],% ILS (increase in life span over controls) (P388; 40 μg/kg/dose),IC50 [3] [ng/mL],also measured
"C=C(Cl)/C=C/C(O)CC(=C)CC1OC2C(C)C(OC(=O)CC3CC(OC(C)=O)CC4(CC(C)(O)CC(CC(=C)C(C)C(OC(C)=O)C(C)C(=O)CC5CC(OC)CC6(CC(O)CC(/C=C\CCCC7OC(O)(CC(O)C7C)C2O)O6)O5)O4)O3)C1O (stereo not drawn) [spongistatin 1, reference compound]",one of the most extraordinarily potent substances presently known,-10%,,"GI50 ([1]; NCI 60 cell line panel, read-out: panel mean GI50): 0.1 nM; GI50 ([1]; quadruplicate, five concentrations, standard errors averaged less than 15% of means, read-out: Mean Panel GI50): 0.117 nM; Compare Correlation Coefficient ([1]; TGI-centered mean graph profiles, spongistatin 1 as seed): 1.00; correlation of mean-graph fingerprint with microtubule-interactive antimitotics ([1]; pattern-recognition analyses, data not shown): closely correlated; % ILS (increase in life span over controls) (P388; 25 μg/kg/dose): +33%"
C=C(Cl)/C=C/[C@H](O)CC(=C)C[C@H]1OC2[C@@H](O)[C@]3(O)C[C@@H](O)[C@H](C)[C@H](CCC/C=C\[C@@H]4C[C@@H](O)C[C@]5(C[C@H](OC)CC(CC(=O)[C@@H](C)[C@H](OC(C)=O)[C@@H](C)C(=C)C[C@@H]6C[C@@](C)(O)C[C@]7(C[C@H](O)CC(CC(=O)O[C@@H]([C@@H]1O)[C@H]2C)O7)O6)O5)O4)O3 [spongistatin 3],exceptionally potent,,,
C=C(Cl)/C=C/[C@H](O)CC(=C)C[C@H]1OC2[C@@H](O)[C@]3(O)C[C@@H](O)[C@H](C)[C@H](CCC/C=C\[C@@H]4C[C@@H](O)C[C@]5(C[C@H](OC)CC(CC(=O)[C@@H](C)[C@H](O)[C@@H](C)C(=C)C[C@@H]6C[C@@](C)(O)C[C@]7(C[C@H](OC(C)=O)CC(CC(=O)O[C@@H]([C@@H]1O)[C@H]2C)O7)O6)O5)O4)O3 [spongistatin 4],,,,% ILS (increase in life span over controls) (P388; 5 μg/kg/dose): +55%
C=C/C=C/C(O)CC(=C)CC1OC2C(C)C(OC(=O)CC3CC(OC(C)=O)CC4(CC(C)(O)CC(CC(=C)C(C)C(O)C(C)C(=O)CC5CC(OC)CC6(CC(O)CC(/C=C\CCCC7OC(O)(CC(O)C7C)C2O)O6)O5)O4)O3)C1O (stereo not drawn) [spongistatin 6],,+70%,,
C=C/C=C/C(O)CC(=C)CC1OC2C(C)C(OC(=O)CC3CC(OC(C)=O)CC4(CC(C)(O)CC(C=C5COC(C(C)C(=O)CC6CC(OC)CC7(CC(O)CC(/C=C\CCCC8OC(O)(CC(O)C8C)C2O)O7)O6)C5C)O4)O3)C1O (stereo not drawn) [spongistatin 8],,,0.8,
C=C(Cl)/C=C/C(O)CC(=C)CC1OC2C(C)C(OC(=O)CC3CC(OC(C)=O)CC4(CC(C)(O)CC(C=C5COC(C(C)C(=O)CC6CC(OC)CC7(CC(O)CC(/C=C\CCCC8OC(O)(CC(O)C8C)C2O)O7)O6)C5C)O4)O3)C1O (stereo not drawn) [spongistatin 9],,,< 0.1,

# From US5393897A, “Isolation and structure of spongistatins 5,7,8 and 9” (Arizona Board of Regents acting on behalf of Arizona State …, priority 1993, dated 1995)
